Assay: mn = molality of the nth substance listed, in mol/kg
Settings: 101 kPa, Liquid; for electrical conductivity: Alternating current cell with electrodes; for viscosity: Falling or rolling sphere viscometry; for mass density: Vibrating tube method

F[B-](F)(F)F.[Na+] [sodium tetrafluoroborate] + CCCCn1cc[n+](C)c1.F[B-](F)(F)F
Settings | electrical conductivity [S/m] | mass density [kg/m3] | viscosity [mPa·s]
238.15 K, m1 = 0.058 | 0.00083 | – | –
238.15 K, m1 = 0.1159 | 0.00077 | – | –
238.15 K, m1 = 0.1739 | 0.00071 | – | –
258.15 K, m1 = 0.058 | 0.0211 | – | –
258.15 K, m1 = 0.1159 | 0.0201 | – | –
258.15 K, m1 = 0.1739 | 0.0188 | – | –
278.15 K, m1 = 0.0273 | – | 1218 | –
278.15 K, m1 = 0.054 | – | 1219.4 | –
278.15 K, m1 = 0.058 | 0.1075 | 1219.2 | 400.2
278.15 K, m1 = 0.0676 | – | 1220.7 | –
278.15 K, m1 = 0.0903 | – | 1221.3 | –
278.15 K, m1 = 0.1069 | – | 1222.4 | –
278.15 K, m1 = 0.1159 | 0.103 | 1222.8 | 421.4
278.15 K, m1 = 0.1377 | – | 1224.3 | –
278.15 K, m1 = 0.1739 | 0.0986 | 1226.2 | 454.8
288.15 K, m1 = 0.0273 | – | 1210.7 | –
288.15 K, m1 = 0.054 | – | 1212.2 | –
288.15 K, m1 = 0.058 | – | 1212.1 | 204.4
288.15 K, m1 = 0.0676 | – | 1213.4 | –
288.15 K, m1 = 0.0903 | – | 1214 | –
288.15 K, m1 = 0.1069 | – | 1215.1 | –
288.15 K, m1 = 0.1159 | – | 1215.5 | 215.5
288.15 K, m1 = 0.1377 | – | 1217 | –
288.15 K, m1 = 0.1739 | – | 1218.9 | 232.6
298.15 K, m1 = 0.0273 | – | 1203.5 | –
298.15 K, m1 = 0.054 | – | 1204.9 | –
298.15 K, m1 = 0.058 | 0.341 | 1205 | 115.5
298.15 K, m1 = 0.0676 | – | 1206.1 | –
298.15 K, m1 = 0.0903 | – | 1206.8 | –
298.15 K, m1 = 0.1069 | – | 1207.9 | –
298.15 K, m1 = 0.1159 | 0.328 | 1208.3 | 121.4
298.15 K, m1 = 0.1377 | – | 1209.8 | –
298.15 K, m1 = 0.1739 | 0.316 | 1211.6 | 130.4
308.15 K, m1 = 0.0273 | – | 1196.3 | –
308.15 K, m1 = 0.054 | – | 1197.7 | –
308.15 K, m1 = 0.058 | – | 1198 | 70.66
308.15 K, m1 = 0.0676 | – | 1199 | –
308.15 K, m1 = 0.0903 | – | 1199.6 | –
308.15 K, m1 = 0.1069 | – | 1200.7 | –
308.15 K, m1 = 0.1159 | – | 1201.1 | 74.52
308.15 K, m1 = 0.1377 | – | 1202.6 | –
308.15 K, m1 = 0.1739 | – | 1204.4 | 79.37
318.15 K, m1 = 0.0273 | – | 1189.2 | –
318.15 K, m1 = 0.054 | – | 1190.7 | –
318.15 K, m1 = 0.058 | 0.794 | 1190.9 | 46.1
318.15 K, m1 = 0.0676 | – | 1191.9 | –
318.15 K, m1 = 0.0903 | – | 1192.5 | –
318.15 K, m1 = 0.1069 | – | 1193.6 | –
318.15 K, m1 = 0.1159 | 0.769 | 1194 | 48.94
318.15 K, m1 = 0.1377 | – | 1195.5 | –
318.15 K, m1 = 0.1739 | 0.745 | 1197.3 | 51.72
328.15 K, m1 = 0.0273 | – | 1182.2 | –
328.15 K, m1 = 0.054 | – | 1183.6 | –
328.15 K, m1 = 0.058 | – | 1183.9 | 31.69
328.15 K, m1 = 0.0676 | – | 1184.9 | –
328.15 K, m1 = 0.0903 | – | 1185.5 | –
328.15 K, m1 = 0.1069 | – | 1186.6 | –
328.15 K, m1 = 0.1159 | – | 1187 | 33.98
328.15 K, m1 = 0.1377 | – | 1188.4 | –
328.15 K, m1 = 0.1739 | – | 1190.3 | 35.69
338.15 K, m1 = 0.0273 | – | 1175.3 | –
338.15 K, m1 = 0.054 | – | 1177 | –
338.15 K, m1 = 0.058 | 1.5 | 1176.8 | 22.75
338.15 K, m1 = 0.0676 | – | 1177.9 | –
338.15 K, m1 = 0.0903 | – | 1178.6 | –
338.15 K, m1 = 0.1069 | – | 1179.6 | –
338.15 K, m1 = 0.1159 | 1.464 | 1180 | 23.85
338.15 K, m1 = 0.1377 | – | 1181.5 | –
338.15 K, m1 = 0.1739 | 1.425 | 1183.3 | 23.94
348.15 K, m1 = 0.0273 | – | 1168.4 | –
348.15 K, m1 = 0.054 | – | 1169.8 | –
348.15 K, m1 = 0.058 | – | 1169.8 | 16.93
348.15 K, m1 = 0.0676 | – | 1171 | –
348.15 K, m1 = 0.0903 | – | 1171.7 | –
348.15 K, m1 = 0.1069 | – | 1172.7 | –
348.15 K, m1 = 0.1159 | – | 1173.1 | 17.63
348.15 K, m1 = 0.1377 | – | 1174.6 | –
348.15 K, m1 = 0.1739 | – | 1176.4 | 17.97
358.15 K, m1 = 0.0273 | – | 1161.6 | –
358.15 K, m1 = 0.054 | – | 1163 | –
358.15 K, m1 = 0.058 | 2.47 | 1162.7 | 13
358.15 K, m1 = 0.0676 | – | 1164.2 | –
358.15 K, m1 = 0.0903 | – | 1164.8 | –
358.15 K, m1 = 0.1069 | – | 1165.9 | –
358.15 K, m1 = 0.1159 | 2.4 | 1166.3 | 13.53
358.15 K, m1 = 0.1377 | – | 1167.7 | –
358.15 K, m1 = 0.1739 | 2.35 | 1169.6 | 14.01
378.15 K, m1 = 0.058 | 3.66 | – | –
378.15 K, m1 = 0.1159 | 3.57 | – | –
378.15 K, m1 = 0.1739 | 3.5 | – | –
398.15 K, m1 = 0.058 | 5.04 | – | –
398.15 K, m1 = 0.1159 | 4.93 | – | –
398.15 K, m1 = 0.1739 | 4.84 | – | –
418.15 K, m1 = 0.058 | 6.58 | – | –
418.15 K, m1 = 0.1159 | 6.45 | – | –
418.15 K, m1 = 0.1739 | 6.35 | – | –
438.15 K, m1 = 0.058 | 8.24 | – | –
438.15 K, m1 = 0.1159 | 8.11 | – | –
438.15 K, m1 = 0.1739 | 7.98 | – | –
458.15 K, m1 = 0.058 | 10 | – | –
458.15 K, m1 = 0.1159 | 9.85 | – | –
458.15 K, m1 = 0.1739 | 9.7 | – | –
